Results published in patent publication US20140271605A1, “STABLE BIOACTIVE SUBSTANCES AND METHODS OF MAKING” (ADVANCED BIONUTRITION CORP., priority 2013, published 2014).

Assay: Stability testing of the herbicides mixture suspension
Type: physicochemical
Settings: 40° C. for 30 days
Protocol: Stability testing of the herbicides mixture suspension: The commercial solutions containing Glyphosate or Round-Up are mixed together, and tested along with the stable Round-Up and Glyphosate mixed suspensions of the present invention. The liquids placed in an oven at 40° C. for 30 days. The remaining activities of the herbicides in the samples are measured following standard protocols.

O=C(O)CNCP(=O)(O)O [Glyphosate]
remaining activity of the herbicide, free commercial solutions mixed together: No Glyphosate activity is detected
